Legend:
hWNK2 = target: T1, hWNK2 (Homo sapiens, UniProt Q9Y3S1); test: MST, WNK kinase family member WNK2; type: binding
T1 construct: host or cells: HEK293T
Experimental: To validate the direct binding of bilirubin to WNK1, we performed a Microscale Thermophoresis (MST) analysis, which assesses the binding capacity of a compound by measuring the movement of proteins over a microscopic temperature gradient.^[ [26], [27] ^] We overexpressed full‐length WNK1 fused with Green Fluorescent Protein (GFP) in HEK‐293 cells, incubated the lysates with bilirubin at varying dilutions, and subjected them to precise MST measurements in capillaries. […] Furthermore, biliverdin, a structurally similar intermediate product generated before bilirubin formation, was used as a control.
(§1) All WNK1 clones were derived from the original untagged hWNK1 cDNA (NM_018979), which was modified and subcloned into the pcDNA3.1, referred to as “full‐length WNK1” throughout this study. Truncated constructs, including 1–190aa, 191–491aa, 1–491aa, and 491–2382aa fragments, were generated by PCR using the full‐length template and subsequently ligated into linearized pcDNA3.1 vectors. WNK2 was obtained from Addgene Plasmid #24569, and WNK3 was obtained from Addgene Plasmid #81723. Both were subjected to base modifications and cloned into pcDNA3.1. The WNK4 clone was derived from hWNK4 cDNA (NM_032387.5), modified, and subcloned into the pCMV3‐C‐GFPSpark vector.
In HEK293T cells, proteins tagged with green fluorescent protein (GFP) were expressed. […]

WNK1 (491–2382) = target: T2, WNK1 (491–2382) (Homo sapiens, UniProt Q9H4A3); test: MST, EGFP-tagged WNK1 truncation 491–2382; type: binding; details: WNK1 491–2382 (non-kinase segment), 15 min, HEK293T lysates
T2 construct: different lengths of WNK1 truncations (1–491, 1–190, 191–491, 491–2382); expressed in transfected cells; host or cells: HEK293T
From the text: To further validate these findings, we constructed GFP‐tagged fusion proteins with different lengths of WNK1 truncations (1–491, 1–190, 191–491, 491–2382) based on the WNK1 domains (Figure 3E) and analyzed their binding capacity with bilirubin using MST analysis.^[ [29] ^]
as §1
In HEK293T cells, proteins tagged with green fluorescent protein (GFP) were expressed. The cells were lysed using the M‐PER Mammalian Protein Extraction Reagent (cat. no. 78505, Thermo Scientific) supplemented with protease inhibitors. Lysates were centrifuged at 12000 × g for 15 min at 4 °C, and the supernatant containing proteins was diluted 10‐fold with 1x PBST. […]

T2 sequence (Q9H4A3 491-2382): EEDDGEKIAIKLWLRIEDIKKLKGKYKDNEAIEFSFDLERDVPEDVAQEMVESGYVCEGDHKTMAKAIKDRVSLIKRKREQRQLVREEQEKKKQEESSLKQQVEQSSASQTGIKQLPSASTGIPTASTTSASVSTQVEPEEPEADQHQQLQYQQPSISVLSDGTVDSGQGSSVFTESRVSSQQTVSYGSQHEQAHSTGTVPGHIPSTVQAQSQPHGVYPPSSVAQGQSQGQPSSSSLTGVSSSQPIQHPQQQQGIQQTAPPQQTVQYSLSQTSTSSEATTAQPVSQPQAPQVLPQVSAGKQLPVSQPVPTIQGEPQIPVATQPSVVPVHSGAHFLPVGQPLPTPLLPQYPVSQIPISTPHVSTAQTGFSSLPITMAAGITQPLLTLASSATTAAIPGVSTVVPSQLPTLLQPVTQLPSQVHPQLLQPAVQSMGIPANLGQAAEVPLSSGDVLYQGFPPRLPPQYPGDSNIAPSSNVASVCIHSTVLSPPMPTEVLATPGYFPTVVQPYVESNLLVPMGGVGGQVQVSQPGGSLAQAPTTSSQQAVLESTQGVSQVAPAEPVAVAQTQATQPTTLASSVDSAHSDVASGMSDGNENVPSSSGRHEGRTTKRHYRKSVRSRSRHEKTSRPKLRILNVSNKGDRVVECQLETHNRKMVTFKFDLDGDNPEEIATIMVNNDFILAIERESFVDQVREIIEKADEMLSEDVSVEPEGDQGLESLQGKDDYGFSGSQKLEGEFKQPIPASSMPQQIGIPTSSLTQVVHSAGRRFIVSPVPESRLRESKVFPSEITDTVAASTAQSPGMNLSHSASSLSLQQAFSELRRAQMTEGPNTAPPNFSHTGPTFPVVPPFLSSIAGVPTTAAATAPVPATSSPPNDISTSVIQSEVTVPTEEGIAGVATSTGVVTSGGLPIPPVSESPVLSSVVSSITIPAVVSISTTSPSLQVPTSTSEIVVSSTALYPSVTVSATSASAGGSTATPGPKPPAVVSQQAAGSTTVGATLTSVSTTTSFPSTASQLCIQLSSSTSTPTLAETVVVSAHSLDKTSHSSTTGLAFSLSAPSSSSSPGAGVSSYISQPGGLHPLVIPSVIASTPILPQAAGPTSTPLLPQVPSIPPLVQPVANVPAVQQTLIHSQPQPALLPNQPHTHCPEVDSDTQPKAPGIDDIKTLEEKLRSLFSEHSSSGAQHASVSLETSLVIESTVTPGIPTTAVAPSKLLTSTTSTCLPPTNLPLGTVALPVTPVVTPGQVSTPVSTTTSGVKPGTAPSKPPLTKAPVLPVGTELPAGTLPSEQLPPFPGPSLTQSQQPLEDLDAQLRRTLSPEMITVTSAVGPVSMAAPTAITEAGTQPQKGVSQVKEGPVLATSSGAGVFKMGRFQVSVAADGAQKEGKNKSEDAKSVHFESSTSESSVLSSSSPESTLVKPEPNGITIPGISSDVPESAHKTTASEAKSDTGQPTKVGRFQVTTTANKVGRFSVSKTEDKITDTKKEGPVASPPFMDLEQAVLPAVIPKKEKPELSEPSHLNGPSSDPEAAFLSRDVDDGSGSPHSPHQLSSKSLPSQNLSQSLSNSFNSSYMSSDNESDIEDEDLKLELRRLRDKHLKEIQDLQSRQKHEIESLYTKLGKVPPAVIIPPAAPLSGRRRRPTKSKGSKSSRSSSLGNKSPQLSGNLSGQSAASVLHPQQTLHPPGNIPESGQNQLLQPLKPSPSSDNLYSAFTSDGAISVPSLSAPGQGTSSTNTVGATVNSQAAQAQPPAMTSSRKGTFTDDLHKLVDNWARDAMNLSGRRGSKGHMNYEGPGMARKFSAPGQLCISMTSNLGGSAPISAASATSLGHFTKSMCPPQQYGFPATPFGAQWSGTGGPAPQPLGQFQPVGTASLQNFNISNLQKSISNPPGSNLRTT
T1 sequence (Q9Y3S1 whole entry): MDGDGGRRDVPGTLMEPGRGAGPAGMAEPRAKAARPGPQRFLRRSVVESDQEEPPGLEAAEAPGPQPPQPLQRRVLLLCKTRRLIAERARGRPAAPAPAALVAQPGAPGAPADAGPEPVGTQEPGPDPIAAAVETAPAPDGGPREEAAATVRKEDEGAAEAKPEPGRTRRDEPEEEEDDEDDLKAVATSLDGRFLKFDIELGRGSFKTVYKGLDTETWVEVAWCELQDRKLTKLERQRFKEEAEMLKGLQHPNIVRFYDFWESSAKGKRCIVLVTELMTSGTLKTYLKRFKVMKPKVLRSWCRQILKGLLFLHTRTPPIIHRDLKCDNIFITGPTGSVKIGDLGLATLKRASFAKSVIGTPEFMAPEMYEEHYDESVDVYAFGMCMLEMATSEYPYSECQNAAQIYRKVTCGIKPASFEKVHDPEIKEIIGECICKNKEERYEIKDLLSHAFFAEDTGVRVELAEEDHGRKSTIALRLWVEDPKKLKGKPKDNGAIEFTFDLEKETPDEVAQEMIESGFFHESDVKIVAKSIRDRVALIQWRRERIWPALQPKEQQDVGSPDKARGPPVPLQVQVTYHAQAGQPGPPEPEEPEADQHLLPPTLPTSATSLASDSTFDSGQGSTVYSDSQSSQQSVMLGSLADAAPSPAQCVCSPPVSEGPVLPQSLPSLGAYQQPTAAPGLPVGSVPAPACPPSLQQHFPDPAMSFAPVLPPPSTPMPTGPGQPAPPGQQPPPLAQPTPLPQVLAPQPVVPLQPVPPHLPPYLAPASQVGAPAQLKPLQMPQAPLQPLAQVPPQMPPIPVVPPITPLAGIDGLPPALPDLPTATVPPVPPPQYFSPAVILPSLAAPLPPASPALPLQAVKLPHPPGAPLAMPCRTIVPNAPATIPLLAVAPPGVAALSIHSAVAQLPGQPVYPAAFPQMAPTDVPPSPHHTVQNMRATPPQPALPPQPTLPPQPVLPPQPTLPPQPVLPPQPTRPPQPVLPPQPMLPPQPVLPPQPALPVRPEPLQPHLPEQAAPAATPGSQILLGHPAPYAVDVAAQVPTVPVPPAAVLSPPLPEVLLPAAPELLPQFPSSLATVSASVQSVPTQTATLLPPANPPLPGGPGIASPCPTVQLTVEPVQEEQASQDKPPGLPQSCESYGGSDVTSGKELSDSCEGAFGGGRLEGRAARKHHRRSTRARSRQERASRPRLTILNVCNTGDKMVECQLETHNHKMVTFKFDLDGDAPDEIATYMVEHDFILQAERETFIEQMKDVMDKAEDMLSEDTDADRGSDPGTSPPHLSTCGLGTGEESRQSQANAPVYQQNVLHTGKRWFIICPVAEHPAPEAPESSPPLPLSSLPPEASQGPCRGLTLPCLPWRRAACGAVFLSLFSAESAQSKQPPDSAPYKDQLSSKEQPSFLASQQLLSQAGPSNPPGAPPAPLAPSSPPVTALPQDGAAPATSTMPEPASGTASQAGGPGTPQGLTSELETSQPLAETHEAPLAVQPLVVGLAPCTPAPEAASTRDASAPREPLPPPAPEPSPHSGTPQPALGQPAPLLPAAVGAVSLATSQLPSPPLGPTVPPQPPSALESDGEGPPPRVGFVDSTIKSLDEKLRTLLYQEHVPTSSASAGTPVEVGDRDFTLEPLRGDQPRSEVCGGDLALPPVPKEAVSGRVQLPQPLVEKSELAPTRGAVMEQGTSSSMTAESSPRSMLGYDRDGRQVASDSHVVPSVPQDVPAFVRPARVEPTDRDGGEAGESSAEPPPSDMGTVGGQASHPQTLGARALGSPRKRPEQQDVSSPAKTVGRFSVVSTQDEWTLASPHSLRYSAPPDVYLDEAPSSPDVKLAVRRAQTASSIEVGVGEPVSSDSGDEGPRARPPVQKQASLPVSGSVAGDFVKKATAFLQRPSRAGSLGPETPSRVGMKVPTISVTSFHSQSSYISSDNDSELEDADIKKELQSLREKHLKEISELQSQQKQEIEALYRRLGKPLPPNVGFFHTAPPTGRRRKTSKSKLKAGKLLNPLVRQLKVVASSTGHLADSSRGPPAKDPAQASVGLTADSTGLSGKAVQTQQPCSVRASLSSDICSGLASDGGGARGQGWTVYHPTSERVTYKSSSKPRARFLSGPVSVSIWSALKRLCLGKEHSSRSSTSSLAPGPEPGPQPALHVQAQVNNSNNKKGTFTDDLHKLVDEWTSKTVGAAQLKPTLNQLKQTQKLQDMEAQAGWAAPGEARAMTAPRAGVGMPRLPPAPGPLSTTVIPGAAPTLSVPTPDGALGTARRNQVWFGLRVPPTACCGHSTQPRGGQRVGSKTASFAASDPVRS

- Kd (hWNK2): 0.53 µM
- Kd (WNK1 (491–2382)): 3.19 µM
SMILES: C=CC1=C(C)/C(=C/c2[nH]c(Cc3[nH]c(/C=C4\NC(=O)C(C)=C4C=C)c(C)c3CCC(=O)O)c(CCC(=O)O)c2C)NC1=O [bilirubin, Bilirubin]

From paper PMC12362796, “Bilirubin Targeting WNK1 to Alleviate NLRP3‐Mediated Neuroinflammation” (Advanced Science, 2025)
